Measurements reported in patent US20240365781A1, “SYNERGISTICALLY EFFECTIVE HERBICIDE COMPOSITION COMPRISING PELARGONIC ACID AND FLAZASULFURON” (Belchim Crop Protection NV, priority 2017, published 2024).

Experiments:
Format in all cases: in vivo
[1] = system: Lolium sp.; assay: post-emergence test, field trial (Examples 1-5); settings: 7 d, FT; pelargonic acid 5440 g/ha, flazasulfuron 50 g/ha; 8 L/ha
Excerpt: (§1) The expected activity of a given combination of two or three herbicides can be calculated as follows according to a calculation method by Colby (cf. COLBY, S. R.: “Calculating synergistic and antagonistic responses of herbicide combinations”, • Weeds 15, pages 20-22, 1967): • If X=% damage by herbicide (A) at an application rate of m g/ha, • Y=% damage by herbicide (B) at an application rate of n g/ha, • E=the expected damage by herbicides (A) and (B) at application rates of m and n […] and, • then for a combination:
(§2) Individual compositions comprising pelargonic acid or flazasulfuron are compared with a herbicide composition according to the invention comprising pelargonic acid and flazasulfuron.
(§3) Herbicidal activity was determined by performing a post-emergence test. […] The corresponding mixture was in the form of a spray liquor. Besides, spray liquors of individual compositions comprising pelargonic acid or flazasulfuron were used.
(§4) Tests were performed on test fields (field trials) or in pots (pot trials).

[2] = system: Sonchus oleraceus L.; assay: post-emergence test, field trial (Examples 1-5); settings: FT, pelargonic acid 5440 g/ha, flazasulfuron 50 g/ha, 8 L/ha
Excerpt: as §1, §2, §3, §4

[3] = system: Chenopodium album; assay: post-emergence test, field trial (Examples 1-5); settings: FT
Excerpt: as §1, §2, §3, §4

[4] = system: Erodium cicuta; assay: post-emergence test, field trial (Examples 1-5); settings: 28 d, FT; pelargonic acid 5440 g/ha, flazasulfuron 50 g/ha; 8 L/ha
Excerpt: as §1, §2, §3, §4

[5] = system: Anagallis arvensis; assay: post-emergence test, field trial (Examples 1-5); settings: 3 d, FT; pelargonic acid 5440 g/ha, flazasulfuron 50 g/ha; 8 L/ha
Excerpt: as §1, §2, §3, §4

[6] = system: Plantago major; assay: post-emergence test, field trial (Examples 1-5); settings: FT
Excerpt: as §1, §2, §3, §4

[7] = system: Veronica persica; assay: post-emergence test, field trial (Examples 1-5); settings: FT, pelargonic acid 5440 g/ha, flazasulfuron 50 g/ha, 8 L/ha
Excerpt: as §1, §2, §3, §4

[8] = system: Festuca ovina; assay: post-emergence test, field trial (Examples 1-5); settings: FT
Excerpt: as §1, §2, §3, §4

[9] = system: Echinochloa crusgalli; assay: post-emergence test, field trial (Examples 1-5); settings: FT
Excerpt: as §1, §2, §3, §4

[10] = system: Convolvulus arvensis L.; assay: post-emergence test, field trial (Examples 1-5); settings: 3 d, FT; pelargonic acid 5440 g/ha, flazasulfuron 50 g/ha; 8 L/ha
Excerpt: as §1, §2, §3, §4

[11] = system: Digitaria sang; assay: post-emergence test, field trial (Examples 1-5); settings: FT, pelargonic acid 5440 g/ha, flazasulfuron 50 g/ha, 8 L/ha
Excerpt: as §1, §2, §3, §4

[12] = system: Setaria viridis; assay: post-emergence field trial under rows of apple trees, 150-200 L water/ha (Examples 10-12)
[13] = 3 d, pelargonic acid 10880 g/ha, flazasulfuron 25 g/ha, 16 L/ha
[14] = 3 d, pelargonic acid 10880 g/ha, flazasulfuron 50 g/ha, 16 L/ha
[15] = 3 d, pelargonic acid 21760 g/ha, flazasulfuron 25 g/ha, 32 L/ha
[16] = 3 d, pelargonic acid 21760 g/ha, flazasulfuron 50 g/ha, 32 L/ha
[17] = 7 d, pelargonic acid 10880 g/ha, flazasulfuron 25 g/ha, 16 L/ha
[18] = 7 d, pelargonic acid 10880 g/ha, flazasulfuron 50 g/ha, 16 L/ha
[19] = 7 d, pelargonic acid 21760 g/ha, flazasulfuron 25 g/ha, 32 L/ha
[20] = 7 d, pelargonic acid 21760 g/ha, flazasulfuron 50 g/ha, 32 L/ha
[21] = 13 d, pelargonic acid 10880 g/ha, flazasulfuron 25 g/ha, 16 L/ha
[22] = 13 d, pelargonic acid 10880 g/ha, flazasulfuron 50 g/ha, 16 L/ha
[23] = 13 d, pelargonic acid 21760 g/ha, flazasulfuron 25 g/ha, 32 L/ha
[24] = 13 d, pelargonic acid 21760 g/ha, flazasulfuron 50 g/ha, 32 L/ha
[25] = 23 d, pelargonic acid 10880 g/ha, flazasulfuron 25 g/ha, 16 L/ha
[26] = 23 d, pelargonic acid 21760 g/ha, flazasulfuron 25 g/ha, 32 L/ha
[27] = 23 d, pelargonic acid 21760 g/ha, flazasulfuron 50 g/ha, 32 L/ha
[28] = 30 d, pelargonic acid 10880 g/ha, flazasulfuron 25 g/ha, 16 L/ha
[29] = 30 d, pelargonic acid 10880 g/ha, flazasulfuron 50 g/ha, 16 L/ha
[30] = 30 d, pelargonic acid 21760 g/ha, flazasulfuron 25 g/ha, 32 L/ha
[31] = 30 d, pelargonic acid 21760 g/ha, flazasulfuron 50 g/ha, 32 L/ha
[32] = 38 d, pelargonic acid 10880 g/ha, flazasulfuron 25 g/ha, 16 L/ha
[33] = 38 d, pelargonic acid 10880 g/ha, flazasulfuron 50 g/ha, 16 L/ha
[34] = 38 d, pelargonic acid 21760 g/ha, flazasulfuron 25 g/ha, 32 L/ha
[35] = 38 d, pelargonic acid 21760 g/ha, flazasulfuron 50 g/ha, 32 L/ha
[36] = 23 d, pelargonic acid 10880 g/ha, flazasulfuron 50 g/ha, 16 L/ha

CCCCCCCCC(=O)O [Pelargonic acid, nonanoic acid]
herbicidal effect [1]: 18.8% | herbicidal effect ([2]; 3 d): 2.5% | herbicidal effect ([2]; 7 d): 1.3% | herbicidal effect ([2]; 13 d): 3.8% | herbicidal effect ([2]; 28 d): 1.3% | herbicidal effect ([2]; 58 d): 0% | herbicidal effect [3, 13]: 40% | herbicidal effect [3, 14]: 40% | herbicidal effect [3, 15]: 45% | herbicidal effect [3, 16]: 45% | herbicidal effect [3, 17]: 40% | herbicidal effect [3, 18]: 40% | herbicidal effect [3, 19]: 35% | herbicidal effect [3, 20]: 35% | herbicidal effect [3, 21]: 10% | herbicidal effect [3, 22]: 10% | herbicidal effect [3, 23]: 10% | herbicidal effect [3, 24]: 10% | herbicidal effect [3, 25]: 15% | herbicidal effect [3, 26]: 40% | herbicidal effect [3, 27]: 40% | herbicidal effect [3, 28]: 0% | herbicidal effect [3, 29]: 0% | herbicidal effect [3, 30]: 0% | herbicidal effect [3, 31]: 0% | herbicidal effect [3, 32]: 15% | herbicidal effect [3, 33]: 15% | herbicidal effect [3, 34]: 30% | herbicidal effect [3, 35]: 30% | herbicidal effect [4]: 82.5% | herbicidal effect [5]: 13.8% | herbicidal effect [6, 13]: 20% | herbicidal effect [6, 14]: 20% | herbicidal effect [6, 16]: 50% | herbicidal effect [6, 17]: 25% | herbicidal effect [6, 18]: 25% | herbicidal effect [6, 19]: 40% | herbicidal effect [6, 20]: 40% | herbicidal effect [6, 21]: 0% | herbicidal effect [6, 22]: 0% | herbicidal effect [6, 23]: 0% | herbicidal effect [6, 24]: 0% | herbicidal effect [6, 26]: 15% | herbicidal effect [6, 27]: 15% | herbicidal effect [6, 28]: 0% | herbicidal effect [6, 29]: 0% | herbicidal effect [6, 30]: 0% | herbicidal effect [6, 31]: 0% | herbicidal effect [6, 32]: 0% | herbicidal effect [6, 33]: 0% | herbicidal effect [6, 34]: 0% | herbicidal effect [6, 35]: 0% | herbicidal effect ([7]; 3 d): 8.8% | herbicidal effect ([7]; 7 d): 20% | herbicidal effect ([7]; 56 d): 16.3% | herbicidal effect [8, 13]: 20% | herbicidal effect [8, 15]: 45% | herbicidal effect [8, 17]: 20% | herbicidal effect [8, 18]: 20% | herbicidal effect [8, 19]: 30% | herbicidal effect [8, 20]: 30% | herbicidal effect [8, 21]: 0% | herbicidal effect [8, 22]: 0% | herbicidal effect [8, 23]: 0% | herbicidal effect [8, 24]: 0% | herbicidal effect [8, 25]: 0% | herbicidal effect [8, 36]: 0% | herbicidal effect [8, 26]: 0% | herbicidal effect [8, 27]: 0% | herbicidal effect [8, 28]: 0% | herbicidal effect [8, 30]: 20% | herbicidal effect [8, 32]: 0% | herbicidal effect [8, 34]: 0% | herbicidal effect ([9]; 3 d, pelargonic acid 5440 g/ha, flazasulfuron 50 g/ha, 8 L/ha): 51.3% | herbicidal effect [9, 13]: 45% | herbicidal effect [9, 15]: 50% | herbicidal effect ([9]; 7 d, pelargonic acid 5440 g/ha, flazasulfuron 50 g/ha, 8 L/ha): 30.8% | herbicidal effect [9, 17]: 30% | herbicidal effect [9, 18]: 30% | herbicidal effect [9, 20]: 45% | herbicidal effect ([9]; 12 d, pelargonic acid 5440 g/ha, flazasulfuron 50 g/ha, 8 L/ha): 5% | herbicidal effect [9, 21]: 0% | herbicidal effect [9, 22]: 0% | herbicidal effect [9, 23]: 0% | herbicidal effect [9, 24]: 0% | herbicidal effect [9, 25]: 10% | herbicidal effect [9, 36]: 10% | herbicidal effect [9, 26]: 10% | herbicidal effect [9, 27]: 10% | herbicidal effect ([9]; 26 d, pelargonic acid 5440 g/ha, flazasulfuron 50 g/ha, 8 L/ha): 0% | herbicidal effect [9, 28]: 0% | herbicidal effect [9, 30]: 0% | herbicidal effect [9, 32]: 0% | herbicidal effect [9, 34]: 0% | herbicidal effect ([9]; 72 d, pelargonic acid 5440 g/ha, flazasulfuron 50 g/ha, 8 L/ha): 0% | herbicidal effect [10]: 11.3% | herbicidal effect ([11]; 3 d): 51.3% | herbicidal effect ([11]; 7 d): 30.8% | herbicidal effect ([11]; 12 d): 5% | herbicidal effect ([11]; 72 d): 0% | herbicidal effect (%) ([12]; Setaria viridis/6 d, 5440 g of active compound/ha): 13% | herbicidal effect (%) ([12]; Setaria viridis/6 d, 8160 g of active compound/ha): 35% | herbicidal effect (%) ([12]; Setaria viridis/6 d, 10880 g of active compound/ha): 40% | herbicidal effect (%) ([12]; Setaria viridis/16 d, 5440 g of active compound/ha): 43% | herbicidal effect (%) ([12]; Setaria viridis/16 d, 8160 g of active compound/ha): 45% | herbicidal effect (%) ([12]; Setaria viridis/16 d, 10880 g of active compound/ha): 48% | herbicidal effect (%) ([12]; Setaria viridis/30 d, 5440 g of active compound/ha): 53% | herbicidal effect (%) ([12]; Setaria viridis/30 d, 8160 g of active compound/ha): 53% | herbicidal effect (%) ([12]; Setaria viridis/30 d, 10880 g of active compound/ha): 53% | herbicidal effect (%) ([12]; Setaria viridis/57 d, 5440 g of active compound/ha): 0% | herbicidal effect (%) ([12]; Setaria viridis/57 d, 8160 g of active compound/ha): 0% | herbicidal effect (%) ([12]; Setaria viridis/57 d, 10880 g of active compound/ha): 0% | herbicidal effect (%) ([12]; Setaria viridis/78 d, 5440 g of active compound/ha): 0% | herbicidal effect (%) ([12]; Setaria viridis/78 d, 8160 g of active compound/ha): 0% | herbicidal effect (%) ([12]; Setaria viridis/78 d, 10880 g of active compound/ha): 0%
